Patent publication US20250066389A1, “HETEROCYCLIC AMIDES AND METHODS OF USING THE SAME” (Rgenta Therapeutics, Inc., priority 2021, published 2025)

What follows are molecules tested on PMS1 (assay: Mini-Gene Reporter Assay—PMS1 (firefly luciferase mini-gene reporter transiently transfected into HEK293 cells)). Conditions: Homo sapiens; at 5 uM; mini-gene firefly luciferase reporter in HEK293 cells; read-out: PMS1 % Effect at 5 uM.
Assay type: cell-based
How it was run: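 Luminescence (RLU) read-out of exon inclusion: compound dilutions, tested in duplicate, act on transiently transfected HEK293 cells carrying a firefly luciferase reporter fused downstream of the PMS1 skipped-exon region. Potency derived by Levenberg-Marquardt curve fitting, with percent effect at 5 μM.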
`CCOc1cc2nn(C)cc2cc1C(=O)Nc1cnc(N2CCNCC2)cn1` [Compound 370] was tested, and the activation at 5 µM was over 75%.
`CCOc1cc2nn(C)cc2cc1C(=O)Nc1cnc(N2CCC(N)CC2)cn1` [Compound 371] was tested, and the activation at 5 µM was over 75%.
In the case of `CCOc1cc2nn(C)cc2cc1C(=O)Nc1cnc(N2CCC(N)C2)cn1` (stereo not drawn) [Compound 372], the activation at 5 µM is reported as over 75%.
For `CCOc1cc2nn(C)cc2cc1C(=O)Nc1cnc(NC2CCNCC2)cn1` [Compound 373], the activation at 5 µM was over 75%.
With `CCOc1cc2nn(C)cc2cc1C(=O)Nc1cnc(N2CCNC(C)C2)cn1` (stereo not drawn) [Compound 374] the activation at 5 µM was over 75%.
`CCOc1cc2nn(C)cc2cc1C(=O)Nc1cnc(NC2CCCNC2)cn1` (stereo not drawn) [Compound 375] showed an activation at 5 µM of 50 to 75%.
`CCOc1cc2nn(C)cc2cc1C(=O)Nc1cnc(N[C@@H]2CCNC2)cn1` [Compound 376] was tested, and the activation at 5 µM was over 75%.
In the case of `CCOc1cc2nn(C)cc2cc1C(=O)Nc1cnc(N[C@@H]2CCCNC2)cn1` [Compound 377], the activation at 5 µM is reported as 50 to 75%.
For `CCOc1cc2nn(C)cc2cc1C(=O)Nc1cnc(NCC2CCCNC2)cn1` (stereo not drawn) [Compound 378], the activation at 5 µM was under 50%.
With `CCOc1cc2nn(C)cc2cc1C(=O)Nc1cnc(N[C@@H]2CNC[C@H](F)C2)nc1` [Compound 380] the activation at 5 µM was under 50%.
`CCOc1cc2nn(C)cc2cc1C(=O)Nc1cnc(NCC(F)C2CCNCC2)nc1` (stereo not drawn) [Compound 381] gave an activation at 5 µM of under 50%.
`CCOc1cc2nn(C)cc2cc1C(=O)Nc1cnc(N2CCNC(C(F)F)C2)nc1` (stereo not drawn) [Compound 382] was tested, and the activation at 5 µM was under 50%.
For `CCOc1cc2nn(C)cc2cc1C(=O)Nc1cnc(NC2CCC23CNC3)nc1` (stereo not drawn) [Compound 383], the activation at 5 µM was under 50%.
Molecule `CCOc1cc2nn(C)cc2cc1C(=O)Nc1cnc(NCC[C@H]2C[C@H](N)C2)nc1` [Compound 384] has an activation at 5 µM of under 50%.
`CCOc1cc2nn(C)cc2cc1C(=O)Nc1cnc(NCC2C=CCN2)nc1` (stereo not drawn) [Compound 385] gave an activation at 5 µM of under 50%.
For `CCOc1cc2nn(C)cc2cc1C(=O)Nc1cnc(N[C@@H]2CNC[C@@H](F)C2)nc1` [Compound 386], the activation at 5 µM was under 50%.
Work on `CCOc1cc2nn(C)cc2cc1C(=O)Nc1cnc(NCc2nn(C)c3c2CNCC3)nc1` [Compound 388] yielded an activation at 5 µM of under 50%.
`CCOc1cc2nn(C)cc2cc1C(=O)Nc1cnc(NC[C@H](C)NC)nc1` [Compound 390] showed an activation at 5 µM of under 50%.
Molecule `CCOc1cc2nn(C)cc2cc1C(=O)Nc1cnc(NC[C@H]2C[C@@](F)(CN)C2)nc1` [Compound 391] has an activation at 5 µM of under 50%.
`CCOc1cc2nn(C)cc2cc1C(=O)Nc1cnc(NC[C@]2(F)C[C@@H](N)C2)nc1` [Compound 392] was tested, and the activation at 5 µM was under 50%.
With `CCOc1cc2nn(C)cc2cc1C(=O)Nc1cnc(NCc2cc3n(n2)CCNC3)nc1` [Compound 393] the activation at 5 µM was under 50%.
With `CCOc1cc2nn(C)cc2cc1C(=O)Nc1cnc(NC[C@H]2CNCC(C)(C)O2)nc1` [Compound 394] the activation at 5 µM was under 50%.
`CCOc1cc2nn(C)cc2cc1C(=O)Nc1cnc(NCC2CCNCCC2(F)F)nc1` (stereo not drawn) [Compound 395] gave an activation at 5 µM of under 50%.
Molecule `CCOc1cc2nn(C)cc2cc1C(=O)Nc1cnc(NC2CNCC23CC3)nc1` (stereo not drawn) [Compound 397] has an activation at 5 µM of under 50%.
`CCOc1cc2nn(C)cc2cc1C(=O)Nc1cnc(NCCCC2CCCN2)nc1` (stereo not drawn) [Compound 398] showed an activation at 5 µM of under 50%.
Molecule `CCOc1cc2nn(C)cc2cc1C(=O)Nc1cnc(NC2CC3NCCOC3C2)nc1` (stereo not drawn) [Compound 399] has an activation at 5 µM of under 50%.
Work on `CCOc1cc2nn(C)cc2cc1C(=O)Nc1cnc(NC[C@H]2CC[C@H](CNC)CC2)nc1` [Compound 400] yielded an activation at 5 µM of under 50%.
In the case of `CCOc1cc2nn(C)cc2cc1C(=O)Nc1cnc(NCc2c(C)nn3c2CNCC3)nc1` [Compound 403], the activation at 5 µM is reported as under 50%.
`CCOc1cc2nn(C)cc2cc1C(=O)Nc1cnc(NCC2CC3(CCNC3)CO2)nc1` (stereo not drawn) [Compound 405] gave an activation at 5 µM of under 50%.
For `CCOc1cc2nn(C)cc2cc1C(=O)Nc1cnc(NCC23CC(N)(C2)C3)nc1` [Compound 406], the activation at 5 µM was under 50%.
With `CCOc1cc2nn(C)cc2cc1C(=O)Nc1cnc(NC2CNCC2(C)C)nc1` (stereo not drawn) [Compound 407] the activation at 5 µM was under 50%.
`CCOc1cc2nn(C)cc2cc1C(=O)Nc1cnc(NCC2CNC(C)(C)C2)nc1` (stereo not drawn) [Compound 408] showed an activation at 5 µM of under 50%.
`CCOc1cc2nn(C)cc2cc1C(=O)Nc1cnc(NCc2cnn3c2CNCC3)nc1` [Compound 409] gave an activation at 5 µM of under 50%.
In the case of `CCOc1cc2nn(C)cc2cc1C(=O)Nc1cnc(N2CCC(N)(CC)CC2)nc1` [Compound 410], the activation at 5 µM is reported as over 75%.
For `CCOc1cc2nn(C)cc2cc1C(=O)Nc1cnc(NCC2CNCCC2(F)F)nc1` (stereo not drawn) [Compound 411], the activation at 5 µM was under 50%.
`CCOc1cc2nn(C)cc2cc1C(=O)Nc1cnc(N2CC(NC)C(C)(C)C2)nc1` (stereo not drawn) [Compound 412] was tested, and the activation at 5 µM was under 50%.
In the case of `CCOc1cc2nn(C)cc2cc1C(=O)Nc1cnc(NCC2CNC(C)C2)nc1` (stereo not drawn) [Compound 413], the activation at 5 µM is reported as under 50%.
In the case of `CCOc1cc2nn(C)cc2cc1C(=O)Nc1cnc(N2CCC(n3ncc4c3CNC4)CC2)nc1` [Compound 414], the activation at 5 µM is reported as under 50%.
Work on `CCOc1cc2nn(C)cc2cc1C(=O)Nc1cnc(NC2CCCNC2C)nc1` (stereo not drawn) [Compound 415] yielded an activation at 5 µM of under 50%.
Molecule `CCOc1cc2nn(C)cc2cc1C(=O)Nc1cnc(N2CC(N)CC2C)nc1` (stereo not drawn) [Compound 416] has an activation at 5 µM of 50 to 75%.
`CCOc1cc2nn(C)cc2cc1C(=O)Nc1cnc(NCCC2CC(F)(F)CN2)nc1` (stereo not drawn) [Compound 417] was tested, and the activation at 5 µM was under 50%.
Molecule `CCOc1cc2nn(C)cc2cc1C(=O)Nc1cnc(N2CCC(N)(c3cccc(F)c3)C2)nc1` (stereo not drawn) [Compound 418] has an activation at 5 µM of under 50%.
For `CCOc1cc2nn(C)cc2cc1C(=O)Nc1cnc(NCC(N)c2ccc(F)cc2)nc1` (stereo not drawn) [Compound 419], the activation at 5 µM was under 50%.
`CCOc1cc2nn(C)cc2cc1C(=O)Nc1cnc(NCC2(CN)CCC2)nc1` [Compound 421] gave an activation at 5 µM of under 50%.
Work on `CCOc1cc2nn(C)cc2cc1C(=O)Nc1cnc(N2CC(N)C(C)(C)C2)nc1` (stereo not drawn) [Compound 422] yielded an activation at 5 µM of under 50%.
`CCOc1cc2nn(C)cc2cc1C(=O)Nc1cnc(NCC2NCCc3sccc32)nc1` (stereo not drawn) [Compound 423] gave an activation at 5 µM of under 50%.
In the case of `CCOc1cc2nn(C)cc2cc1C(=O)Nc1cnc(NC(C)CNC)nc1` (stereo not drawn) [Compound 424], the activation at 5 µM is reported as under 50%.
For `CCOc1cc2nn(C)cc2cc1C(=O)Nc1cnc(NCC[C@@H]2C[C@H](OC)CN2)nc1` [Compound 425], the activation at 5 µM was under 50%.
Molecule `CCOc1cc2nn(C)cc2cc1C(=O)Nc1cnc(NCC2=CCNCC2)nc1` [Compound 426] has an activation at 5 µM of under 50%.
`CCOc1cc2nn(C)cc2cc1C(=O)Nc1cnc(N2C[C@@H](F)C[C@H]2CN)nc1` [Compound 427] showed an activation at 5 µM of under 50%.
Molecule `CCOc1cc2nn(C)cc2cc1C(=O)Nc1cnc(NCC2CCCCNC2)nc1` (stereo not drawn) [Compound 428] has an activation at 5 µM of under 50%.
Molecule `CCOc1cc2nn(C)cc2cc1C(=O)Nc1cnc(N2CCC3(CNCCO3)C2)nc1` (stereo not drawn) [Compound 429] has an activation at 5 µM of under 50%.
`CCOc1cc2nn(C)cc2cc1C(=O)Nc1cnc(NCC2CCNCC2(F)F)nc1` (stereo not drawn) [Compound 431] gave an activation at 5 µM of under 50%.
Molecule `CCOc1cc2nn(C)cc2cc1C(=O)Nc1cnc(N2C[C@H](O)C[C@@H]2CN)nc1` [Compound 433] has an activation at 5 µM of under 50%.
In the case of `CCOc1cc2nn(C)cc2cc1C(=O)Nc1cnc(NCC2CCNCC2C)nc1` (stereo not drawn) [Compound 434], the activation at 5 µM is reported as under 50%.
For `CCOc1cc2nn(C)cc2cc1C(=O)Nc1cnc(N2CCCC(C)(CN)C2)nc1` (stereo not drawn) [Compound 435], the activation at 5 µM was under 50%.
`CCOc1cc2nn(C)cc2cc1C(=O)Nc1cnc(N2CC3(CNCCO3)C2)nc1` [Compound 436] gave an activation at 5 µM of under 50%.
With `CCOc1cc2nn(C)cc2cc1C(=O)Nc1cnc(N2CCCC2CNC)nc1` (stereo not drawn) [Compound 437] the activation at 5 µM was under 50%.
For `CCOc1cc2nn(C)cc2cc1C(=O)Nc1cnc(N(C)C[C@H]2CCCN2)nc1` [Compound 438], the activation at 5 µM was under 50%.
Molecule `CCOc1cc2nn(C)cc2cc1C(=O)Nc1cnc(NCC2(C)CCNC2)nc1` (stereo not drawn) [Compound 439] has an activation at 5 µM of under 50%.
For `CCOc1cc2nn(C)cc2cc1C(=O)Nc1cnc(N2C[C@@H](F)C[C@H]2CNC)nc1` [Compound 440], the activation at 5 µM was under 50%.
`CCOc1cc2nn(C)cc2cc1C(=O)Nc1cnc(N2CCCC3(CCNC3)C2)nc1` (stereo not drawn) [Compound 441] was tested, and the activation at 5 µM was under 50%.
`CCOc1cc2nn(C)cc2cc1C(=O)Nc1cnc(N2CCC3(CCCN3)CC2)nc1` [Compound 442] was tested, and the activation at 5 µM was over 75%.
`CCOc1cc2nn(C)cc2cc1C(=O)Nc1cnc(NC[C@@H]2CC(F)(F)CN2)nc1` [Compound 443] gave an activation at 5 µM of under 50%.
In the case of `CCOc1cc2nn(C)cc2cc1C(=O)Nc1cnc(N2CC(N)C3(CC3)C2)nc1` (stereo not drawn) [Compound 444], the activation at 5 µM is reported as under 50%.
With `CCOc1cc2nn(C)cc2cc1C(=O)Nc1cnc(NCc2ccc(CN)cc2F)nc1` [Compound 445] the activation at 5 µM was under 50%.
In the case of `CCOc1cc2nn(C)cc2cc1C(=O)Nc1cnc(N(C)CC2CCCN2)nc1` (stereo not drawn) [Compound 446], the activation at 5 µM is reported as under 50%.
Work on `CCOc1cc2nn(C)cc2cc1C(=O)Nc1cnc(NCCC2(O)CNC2)nc1` [Compound 447] yielded an activation at 5 µM of under 50%.
In the case of `CCOc1cc2nn(C)cc2cc1C(=O)Nc1cnc(N(C)CCN2CCNCC2)nc1` [Compound 448], the activation at 5 µM is reported as under 50%.
With `CCOc1cc2nn(C)cc2cc1C(=O)Nc1cnc(N(C)CC2CCNC2)nc1` (stereo not drawn) [Compound 449] the activation at 5 µM was under 50%.
Work on `CCOc1cc2nn(C)cc2cc1C(=O)Nc1cnc(NC[C@H]2CCCNC2)nc1` [Compound 450] yielded an activation at 5 µM of under 50%.
In the case of `CCOc1cc2nn(C)cc2cc1C(=O)Nc1cnc(NCc2ccccc2N2CCNCC2)nc1` [Compound 451], the activation at 5 µM is reported as under 50%.
`CCOc1cc2nn(C)cc2cc1C(=O)Nc1cnc(N2CCC3(CC2)CNCCO3)nc1` [Compound 452] was tested, and the activation at 5 µM was under 50%.
For `CCOc1cc2nn(C)cc2cc1C(=O)Nc1cnc(N2CC(C)NCC2C)nc1` (stereo not drawn) [Compound 453], the activation at 5 µM was 50 to 75%.
For `CCOc1cc2nn(C)cc2cc1C(=O)Nc1cnc(N2CCC3(CCNCC3)C2)nc1` [Compound 454], the activation at 5 µM was under 50%.
For `CCOc1cc2nn(C)cc2cc1C(=O)Nc1cnc(N2CCCC(CCN)C2)nc1` (stereo not drawn) [Compound 455], the activation at 5 µM was under 50%.
In the case of `CCOc1cc2nn(C)cc2cc1C(=O)Nc1cnc(N2CCOC3(CCNCC3)C2)nc1` [Compound 459], the activation at 5 µM is reported as under 50%.
`CCOc1cc2nn(C)cc2cc1C(=O)Nc1cnc(NCCC2CCCCN2)nc1` (stereo not drawn) [Compound 460] showed an activation at 5 µM of under 50%.
